Converted amounts (≈) assume the structure as drawn.
Tests used:
[1] = system: E. coli RNase P RNA, M1 RNA; experiment: Inhibition of bacterial RNase P activity, IC50 determination (cleavage of pATSerUG by M1 RNA); type: biochemical; conditions: NI = No inhibition
[2] = system: Staphylococcus aureus (ATCC25923); experiment: MIC, broth microdilution (CLSI), Staphylococcus aureus ATCC25923; conditions: ATCC25923, read-out: S. aureus ("Clinical") MIC
[3] = system: Escherichia coli (ATCC25922); experiment: MIC, broth microdilution (CLSI), Escherichia coli ATCC25922; conditions: ATCC25922, read-out: E. coli MIC, Table 15, NI = No inhibition
Procedure: Initial minimal inhibitory concentration (MIC) tests were made on two bacterial strains: • Escherichia coli (ATCC25922) • Staphylococcus aureus (ATCC25923).
Minimal Inhibitory Concentration (MIC)
MIC values were determined using the standard broth microdilution procedure based on the guidelines by the Clinical and Laboratory Standards Institute (CLSI). Briefly, the compounds were dissolved in DMSO to 10 mM. They were diluted in cation-adjusted Mueller-Hinton broth (CAMHB) to four times the highest concentration tested. A serial 2-fold dilution in CAMHB was done in microdilution plates. The inoculum of bacterial strain to be tested was prepared by making a suspension of colonies from an 18 to 24 hours old plate in CAMHB. The inoculum was diluted so that, after inoculation, each well contained approximately 5×10^5 CFU/mL. To a volume of 50 μl compound in CAMHB an equal volume of inoculum was added. The tray was sealed in a plastic bag and incubated at 35° C. for 16 to 20 hours. To aid in the detection of growth the dye resazurin was added to a final concentration 0.001% and incubated at room temperature for 1 h. Reduction of resazurin, and therefore bacterial growth, was seen as a change from blue to pink.

[4] = system: Staphylococcus aureus subsp. aureus (ATCC29213); experiment: MIC, broth microdilution (CLSI), Staphylococcus aureus subsp. aureus ATCC29213; type: cell-based; conditions: ATCC29213, Table 15, read-out: S. aureus ("wound") (MIC)

Question: Which IC50 [1] does the source give for `NCC(O)CNC(=O)c1cc2c(c([N+](=O)[O-])c1)Nc1ccccc1S2` (centres unmarked) [compound 94, N-(3-amino-2-hydroxypropyl)-1-nitro-10H-phenothiazine-3-carboxamide] here?
Answer: 202 µM

Question: And the MIC [2]?
Answer: 64 µg/mL (≈ 178 µM)

Question: What about the MIC [3] of the same compound?
Answer: > 100 µg/mL

Question: And the MIC [4]?
Answer: 94 µg/mL (≈ 261 µM)

Question: How did the IC50 [1] turn out when `NC1CCCC(C(=O)Nc2cc(C(F)(F)F)cc3c2Nc2ccccc2S3)C1` (centres unmarked) [compound 105, 3-Amino-N-(3-(trifluoromethyl)-10H-phenothiazin-1-yl)cyclohexanecarboxamide] was run?
Answer: 15 µM

Question: What about the MIC [2] of the same compound?
Answer: 26 µg/mL (≈ 63.8 µM)

Question: What about the MIC [3] of the same compound?
Answer: 52 µg/mL (≈ 128 µM)

Question: And the MIC [4]?
Answer: 32 µg/mL (≈ 78.5 µM)

Question: For `CN(C)CCCN1c2ccc(-c3cc4ccccc4[nH]3)cc2Sc2cccnc21` [compound 135, 3-(7-(1H-Indol-2-yl)-10H-benzo[b]pyrido[2,3-e][1,4]thiazin-10-yl)-N,N-dimethylpropan-1-amine], which IC50 [1] is on record?
Answer: 24 to 32 µM

Question: And the MIC [2]?
Answer: 6 µg/mL (≈ 15 µM)

Question: What about the MIC [3] of the same compound?
Answer: > 100 µg/mL

Question: What about the MIC [4] of the same compound?
Answer: 8 µg/mL (≈ 20 µM)

Question: How did the IC50 [1] turn out when `CN(C)CCCN1c2ccccc2Sc2cc(-c3cc4ccccc4n3CCN)ccc21` [compound 136, 3-(3-(1-(2-aminoethyl)-1H-indol-2-yl)-10H-phenothiazin-10-yl)-N,N-dimethylpropan-1-amine] was run?
Answer: 37 µM

Question: And the MIC [2]?
Answer: 7 µg/mL (≈ 15.8 µM)

Question: What about the MIC [3] of the same compound?
Answer: 7 µg/mL (≈ 15.8 µM)

Question: What about the MIC [4] of the same compound?
Answer: 16 µg/mL (≈ 36.1 µM)

Question: Which results are given for `FC(F)(F)c1cc(NC2CCNCC2)c2c(c1)Sc1ccccc1N2` [compound 141, N-(piperidin-4-yl)-3-(trifluoromethyl)-10H-phenothiazin-1-amine]?
Answer: IC50 [1]: 12 µM; MIC [2]: 3 µg/mL (≈ 8.21 µM); MIC [3]: 12 µg/mL (≈ 32.8 µM); MIC [4]: 6 µg/mL (≈ 16.4 µM)

Question: `NC1CCCC(C(=O)Nc2cc(C(F)(F)F)cc3nc4ccccc4nc23)C1` (centres unmarked) [compound 211, 3-amino-N-(3-(trifluoromethyl)phenazin-1-yl) cyclohexane-carboxamide] was tested. Which IC50 [1] did it give?
Answer: 258 µM

Question: What about the MIC [2] of the same compound?
Answer: 25 µg/mL (≈ 64.4 µM)

Question: And the MIC [4]?
Answer: 211 µg/mL (≈ 543 µM)

Question: Which results are given for `N#Cc1ccc2c(c1)Sc1cc(C(F)(F)F)cc(NC3CCN(CCN)CC3)c1N2` [compound 217, 9-((1-(2-Aminoethyl)piperidin-4-yl)amino)-7-(trifluoromethyl)-10H-phenothiazine-3-carbonitrile]?
Answer: IC50 [1]: 10 µM; MIC [2]: 2 µg/mL (≈ 4.61 µM); MIC [3]: 3 µg/mL (≈ 6.92 µM); MIC [4]: 4 µg/mL (≈ 9.23 µM)

Question: What does the source list for `NCCN(CCN)CCN1CCC(Nc2cc(C(F)(F)F)cc3c2Nc2ccccc2S3)CC1` [compound 234, N1-(2-aminoethyl)-N1-(2-(4-((3-(trifluoromethyl)-10H-phenothiazin-1-yl)amino)piperidin-1-yl)ethyl)ethane-1,2-diamine]?
Answer: MIC [2]: 4 µg/mL (≈ 8.09 µM); MIC [3]: 8 µg/mL (≈ 16.2 µM); MIC [4]: 8 µg/mL (≈ 16.2 µM)

Question: What does the source list for `FC(F)(F)c1cc(NC2CCNCC2)cc2c1Nc1ccccc1S2` [compound 240, N-(piperidin-4-yl)-1-(trifluoromethyl)-10H-phenothiazin-3-amine]?
Answer: IC50 [1]: 62 µM; MIC [2]: 23 µg/mL (≈ 62.9 µM); MIC [3]: > 100 µg/mL

Question: `NCCCN1c2ccc(-c3cc4ccccc4[nH]3)cc2Sc2cc(N3CCNCC3)ccc21.O=C(O)C(F)(F)F` [compound 244, 3-(3-(1H-indol-2-yl)-7-(piperazin-1-yl)-10H-phenothiazin-10-yl)propan-1-amine] was tested. Which IC50 [1] did it give?
Answer: 4 µM

Question: What about the MIC [2] of the same compound?
Answer: 9 µg/mL

Question: And the MIC [3]?
Answer: 36 µg/mL

Question: What about the MIC [4] of the same compound?
Answer: 4 µg/mL

Question: Which results are given for `COC(=O)c1ccc2c(c1)Sc1cc(C(F)(F)F)cc(NC3CCN(CCN)CC3)c1N2` [compound 247, Methyl 9-((1-(2-aminoethyl)piperidin-4-yl)amino)-7-(trifluoromethyl)-10H-phenothiazine-3-carboxylate]?
Answer: IC50 [1]: 16 µM; MIC [2]: 4 µg/mL (≈ 8.57 µM); MIC [3]: 4 µg/mL (≈ 8.57 µM); MIC [4]: 8 µg/mL (≈ 17.1 µM)

Question: How did the IC50 [1] turn out when `NCCN1CCC(Nc2cc3c(c(C(F)(F)F)c2)Nc2ccccc2S3)CC1` [compound 252, N-(1-(2-aminoethyl)piperidin-4-yl)-1-(trifluoromethyl)-10H-phenothiazin-3-amine] was run?
Answer: 9 µM

Question: What about the MIC [2] of the same compound?
Answer: 7 µg/mL (≈ 17.1 µM)

Question: And the MIC [3]?
Answer: 26 µg/mL (≈ 63.6 µM)

Source: patent US11130741B2 (Bioimics AB, priority 2016, dated 2021)
